Laboratory results: patent publication US20220251141A1, “IMMUNOMODULATORS” (Bristol-Myers Squibb Company, priority 2019, published 2022)
Bridge positions count the residues as written; N and C are the ends. Square brackets hold non-standard residues; d marks the D form. Peptide text beside a SMILES is read from it. * marks the point of attachment. Trp(1-CH2COOH) = N[C@@H](Cc1cn(CC(=O)O)c2ccccc12)C(=O)O; Trp(1-Me) = Cn1cc(C[C@H](N)C(=O)O)c2ccccc21; Phe(4-F) = N[C@@H](Cc1ccc(F)cc1)C(=O)O; Hyp = O=C(O)[C@@H]1C[C@@H](O)CN1; NMeNle = CCCC[C@H](NC)C(=O)O; Pen = CC(C)(S)[C@H](N)C(=O)O; Pip = O=C(O)[C@@H]1CCCCN1; Dab = NCC[C@H](N)C(=O)O; Dap = NC[C@H](N)C(=O)O; Piv = CC(C)(C)C(=O)*

target: T1, PD-1/PD-L1 (Homo sapiens, UniProt Q9NZQ7); assay: PD-1/PD-L1 Homogenous Time-Resolved Fluorescence (HTRF) binding assay; settings: PD-L1-His 10 nM final, PD-1-Ig 20 nM final; inhibitors pre-incubated with PD-L1-His for 15 m
T1 construct: TVMV protease site linker (C); made in house; host or cells: HEK293T cells
Procedure, shortened: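 Compounds pre-incubated 15 min with human PD-L1(18-239)-His (10 nM final), then PD-1(25-167)-Ig (20 nM final) added for 15 min, in dPBS with 0.1% BSA and 0.05% Tween-20. Eu-cryptate anti-Ig (1 nM) and APC anti-His (20 nM) added, 30 min equilibration, 665/620 nm ratio read; IC50 reported.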

| Compound | IC50 [nM] |
| --- | --- |
| CCCC[C@H]1C(=O)N(C)[C@@H](CCCC)C(=O)N[C@@H](CC(C)C)C(=O)N[C@H](C(N)=O)CSCC(=O)N[C@@H](Cc2ccc(F)cc2)C(=O)N2CCCC[C@H]2C(=O)N[C@@H](CC(=O)O)C(=O)N2CCC[C@H]2C(=O)N[C@@H](CNC(=O)C(C)(C)C)C(=O)N[C@@H](CC(C)C)C(=O)N2C[C@H](O)C[C@H]2C(=O)N[C@@H](Cc2c[nH]c3ccccc23)C(=O)N[C@@H](CCN)C(=O)N[C@@H](Cc2cn(C)c3ccccc23)C(=O)N1C [Example 20190] ({CH2CO}-[Phe(4-F)][Pip]DP[Dap](Piv)L[Hyp]W[Dab][Trp(1-Me)][NMeNle][NMeNle]LC-NH2; thioether N-14) | 14.2 |
| CCCC[C@H]1C(=O)N(C)[C@@H](CCCC)C(=O)N[C@@H](CC(C)C)C(=O)N[C@H](C(N)=O)CSCC(=O)N[C@@H](Cc2ccc(F)cc2)C(=O)N2CCCC[C@H]2C(=O)N[C@@H](CC(N)=O)C(=O)N2CCC[C@H]2C(=O)N[C@@H](CNC(=O)C(C)(C)C)C(=O)N[C@@H](CC(C)C)C(=O)N2C[C@H](O)C[C@H]2C(=O)N[C@@H](Cc2c[nH]c3ccccc23)C(=O)N[C@@H](CCNC(=O)C(C)(C)C)C(=O)N[C@@H](Cc2cn(CC(=O)O)c3ccccc23)C(=O)N1C [Example 20200] ({CH2CO}-[Phe(4-F)][Pip]NP[Dap](Piv)L[Hyp]W[Dab](Piv)[Trp(1-CH2COOH)][NMeNle][NMeNle]LC-NH2; thioether N-14) | 15.8 |
| CCCC[C@H]1C(=O)N(C)[C@@H](CCCC)C(=O)N[C@@H](CC(C)C)C(=O)N[C@H](C(N)=O)C(C)(C)SCC(=O)N[C@@H](Cc2ccc(F)cc2)C(=O)N2CCCC[C@H]2C(=O)N[C@@H](CC(=O)O)C(=O)N2CCC[C@H]2C(=O)N[C@@H](CNC(=O)C(C)(C)C)C(=O)N[C@@H](CC(C)C)C(=O)N2C[C@H](O)C[C@H]2C(=O)N[C@@H](Cc2c[nH]c3ccccc23)C(=O)N[C@@H](CCN)C(=O)N[C@@H](Cc2cn(C)c3ccccc23)C(=O)N1C [Example 20210] ({CH2CO}-[Phe(4-F)][Pip]DP[Dap](Piv)L[Hyp]W[Dab][Trp(1-Me)][NMeNle][NMeNle]L[Pen]-NH2; thioether N-14) | 16.4 |
| CCCC[C@H]1C(=O)N(C)[C@@H](CCCC)C(=O)N[C@@H](CCC(N)=O)C(=O)N[C@H](C(N)=O)C(C)SCC(=O)N[C@@H](Cc2ccc(F)cc2)C(=O)N2CCCC[C@H]2C(=O)N[C@@H](CC(N)=O)C(=O)N2CCC[C@H]2C(=O)N[C@@H](CNC(=O)C(C)(C)C)C(=O)N[C@@H](C(C)C)C(=O)N2C[C@H](O)C[C@H]2C(=O)N[C@@H](Cc2c[nH]c3ccccc23)C(=O)N[C@@H](CCN)C(=O)N[C@@H](Cc2cn(C)c3ccccc23)C(=O)N1C (some centres unmarked) [Example 20220] | 16.6 |
| CCCC[C@H]1C(=O)N(C)[C@@H](CCCC)C(=O)N[C@@H](CCC(=O)O)C(=O)N[C@H](C(N)=O)CSCC(=O)N[C@@H](Cc2ccc(F)cc2)C(=O)N2CCCC[C@H]2C(=O)N[C@@H](CC(N)=O)C(=O)N2CCC[C@H]2C(=O)N[C@@H](CNC(=O)C(C)(C)C)C(=O)N[C@@H](CC(C)C)C(=O)N2C[C@H](O)C[C@H]2C(=O)N[C@@H](Cc2c[nH]c3ccccc23)C(=O)N[C@@H](CCNC(=O)C(C)(C)C)C(=O)N[C@@H](Cc2cn(C)c3ccccc23)C(=O)N1C [Example 20230] ({CH2CO}-[Phe(4-F)][Pip]NP[Dap](Piv)L[Hyp]W[Dab](Piv)[Trp(1-Me)][NMeNle][NMeNle]EC-NH2; thioether N-14) | 16.6 |
| CCCC[C@H]1C(=O)N(C)[C@@H](CCCC)C(=O)N[C@@H](CCC(N)=O)C(=O)N[C@H](C(N)=O)CSCC(=O)N[C@@H](Cc2ccc(F)cc2)C(=O)N2CCCC[C@H]2C(=O)N[C@@H](CC(=O)O)C(=O)N2CCC[C@H]2C(=O)N[C@@H](CNC(=O)C(C)(C)C)C(=O)N[C@@H](CCCCN)C(=O)N2C[C@H](O)C[C@H]2C(=O)N[C@@H](Cc2c[nH]c3ccccc23)C(=O)N[C@@H](CCN)C(=O)N[C@@H](Cc2cn(C)c3ccccc23)C(=O)N1C [Example 20240] ({CH2CO}-[Phe(4-F)][Pip]DP[Dap](Piv)K[Hyp]W[Dab][Trp(1-Me)][NMeNle][NMeNle]QC-NH2; thioether N-14) | 18.4 |
| CCCC[C@H]1C(=O)N(C)[C@@H](CCCC)C(=O)N[C@@H](CC(C)C)C(=O)N[C@H](C(N)=O)CSCC(=O)N[C@@H](Cc2ccc(F)cc2)C(=O)N2CCCC[C@H]2C(=O)N[C@@H](CC(=O)O)C(=O)N2CCC[C@H]2C(=O)N[C@@H](CNC(=O)C(C)(C)C)C(=O)N[C@@H](CC(C)C)C(=O)N2C[C@H](O)C[C@H]2C(=O)N[C@@H](Cc2c[nH]c3ccccc23)C(=O)N[C@@H](CCNC(=O)C(C)(C)C)C(=O)N[C@@H](Cc2cn(CC(=O)O)c3ccccc23)C(=O)N1C [Example 20250] ({CH2CO}-[Phe(4-F)][Pip]DP[Dap](Piv)L[Hyp]W[Dab](Piv)[Trp(1-CH2COOH)][NMeNle][NMeNle]LC-NH2; thioether N-14) | 22.9 |
| CCCC[C@H]1C(=O)N(C)[C@@H](CCCC)C(=O)N[C@@H](CC(C)C)C(=O)N[C@H](C(N)=O)CSCC(=O)N[C@@H](Cc2ccc(F)cc2)C(=O)N2CCCC[C@H]2C(=O)N[C@@H](CC(N)=O)C(=O)N2CCC[C@H]2C(=O)N[C@@H](CNC(=O)C(C)(C)C)C(=O)N[C@@H](CC(C)C)C(=O)N2C[C@H](O)C[C@H]2C(=O)N[C@@H](Cc2c[nH]c3ccccc23)C(=O)N[C@@H](CCN)C(=O)N[C@@H](Cc2cn(C)c3ccccc23)C(=O)N1C [Example 20260] ({CH2CO}-[Phe(4-F)][Pip]NP[Dap](Piv)L[Hyp]W[Dab][Trp(1-Me)][NMeNle][NMeNle]LC-NH2; thioether N-14) | 28.9 |
| CCCC[C@H]1C(=O)N(C)[C@@H](CCCC)C(=O)N[C@@H](CCC(=O)O)C(=O)N[C@H](C(N)=O)CSCC(=O)N[C@@H](Cc2ccc(F)cc2)C(=O)N2CCCC[C@H]2C(=O)N[C@@H](CC(N)=O)C(=O)N2CCC[C@H]2C(=O)N[C@@H](CNC(=O)C(C)(C)C)C(=O)N[C@@H](CC(C)C)C(=O)N2C[C@H](O)C[C@H]2C(=O)N[C@@H](Cc2c[nH]c3ccccc23)C(=O)N[C@@H](CCN)C(=O)N[C@@H](Cc2cn(C)c3ccccc23)C(=O)N1C [Example 20270] ({CH2CO}-[Phe(4-F)][Pip]NP[Dap](Piv)L[Hyp]W[Dab][Trp(1-Me)][NMeNle][NMeNle]EC-NH2; thioether N-14) | 43.2 |

Continued by falling IC50, values first:

| IC50 [nM] | Compound |
| --- | --- |
| 14.1 | CCCC[C@H]1C(=O)N(C)[C@@H](CCCC)C(=O)N[C@@H](CC(C)C)C(=O)N[C@H](C(N)=O)C(C)(C)SCC(=O)N[C@@H](Cc2ccc(F)cc2)C(=O)N2CCCC[C@H]2C(=O)N[C@@H](CC(=O)O)C(=O)N2CCC[C@H]2C(=O)N[C@@H](CNC(=O)C(C)(C)C)C(=O)N[C@@H](CC(C)C)C(=O)N2C[C@H](O)C[C@H]2C(=O)N[C@@H](Cc2c[nH]c3ccccc23)C(=O)N[C@@H](CCNC(=O)C(C)(C)C)C(=O)N[C@@H](Cc2cn(CC(=O)O)c3ccccc23)C(=O)N1C [Example 20180] ({CH2CO}-[Phe(4-F)][Pip]DP[Dap](Piv)L[Hyp]W[Dab](Piv)[Trp(1-CH2COOH)][NMeNle][NMeNle]L[Pen]-NH2; thioether N-14) |
| 14 | CCCC[C@H]1C(=O)N(C)[C@@H](CCCC)C(=O)N[C@@H](CCC(=O)O)C(=O)N[C@H](C(N)=O)CSCC(=O)N[C@@H](Cc2ccc(F)cc2)C(=O)N2CCCC[C@H]2C(=O)N[C@@H](CC(=O)O)C(=O)N2CCC[C@H]2C(=O)N[C@@H](CNC(=O)C(C)(C)C)C(=O)N[C@@H](CC(C)C)C(=O)N2C[C@H](O)C[C@H]2C(=O)N[C@@H](Cc2c[nH]c3ccccc23)C(=O)N[C@@H](CCN)C(=O)N[C@@H](Cc2cn(CC(=O)O)c3ccccc23)C(=O)N1C [Example 20170] ({CH2CO}-[Phe(4-F)][Pip]DP[Dap](Piv)L[Hyp]W[Dab][Trp(1-CH2COOH)][NMeNle][NMeNle]EC-NH2; thioether N-14) |
| 12.5 | CCCC[C@H]1C(=O)N(C)[C@@H](CCCC)C(=O)N[C@@H](CCC(N)=O)C(=O)N[C@H](C(N)=O)CSCC(=O)N[C@@H](Cc2ccc(F)cc2)C(=O)N2CCCC[C@H]2C(=O)N[C@@H](CC(N)=O)C(=O)N2CCC[C@H]2C(=O)N[C@@H](CNC(=O)C(C)(C)C)C(=O)N[C@@H](CC(C)C)C(=O)N2C[C@H](O)C[C@H]2C(=O)N[C@@H](Cc2c[nH]c3ccccc23)C(=O)N[C@@H](CCN)C(=O)N[C@@H](Cc2cn(C)c3ccccc23)C(=O)N1C [Example 20150] ({CH2CO}-[Phe(4-F)][Pip]NP[Dap](Piv)L[Hyp]W[Dab][Trp(1-Me)][NMeNle][NMeNle]QC-NH2; thioether N-14) |
| 11.8 | CCCC[C@H]1C(=O)N(C)[C@@H](CCCC)C(=O)N[C@@H](CC(C)C)C(=O)N[C@H](C(N)=O)C(C)(C)SCC(=O)N[C@@H](Cc2ccc(F)cc2)C(=O)N2CCCC[C@H]2C(=O)N[C@@H](CC(N)=O)C(=O)N2CCC[C@H]2C(=O)N[C@@H](CNC(=O)C(C)(C)C)C(=O)N[C@@H](CC(C)C)C(=O)N2C[C@H](O)C[C@H]2C(=O)N[C@@H](Cc2c[nH]c3ccccc23)C(=O)N[C@@H](CCN)C(=O)N[C@@H](Cc2cn(C)c3ccccc23)C(=O)N1C [Example 20120] ({CH2CO}-[Phe(4-F)][Pip]NP[Dap](Piv)L[Hyp]W[Dab][Trp(1-Me)][NMeNle][NMeNle]L[Pen]-NH2; thioether N-14) |
| 11.8 | CCCC[C@H]1C(=O)N(C)[C@@H](CCCC)C(=O)N[C@@H](CCC(=O)O)C(=O)N[C@H](C(N)=O)CSCC(=O)N[C@@H](Cc2ccc(F)cc2)C(=O)N2CCCC[C@H]2C(=O)N[C@@H](CC(N)=O)C(=O)N2CCC[C@H]2C(=O)N[C@@H](CNC(=O)C(C)(C)C)C(=O)N[C@@H](CC(C)C)C(=O)N2C[C@H](O)C[C@H]2C(=O)N[C@@H](Cc2c[nH]c3ccccc23)C(=O)N[C@@H](CCN)C(=O)N[C@@H](Cc2cn(CC(=O)O)c3ccccc23)C(=O)N1C [Example 20130] ({CH2CO}-[Phe(4-F)][Pip]NP[Dap](Piv)L[Hyp]W[Dab][Trp(1-CH2COOH)][NMeNle][NMeNle]EC-NH2; thioether N-14) |
